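Five compound concentrations were applied to cells in 96-well plates for 48 hours; endpoints were derived by simple linear interpolation of the resulting dose-response curve. GI50: concentration for 50% inhibition of growth. The concentration for full growth arrest is given as TGI.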
What was measured:
Experiment in all cases: DTP human tumour cell line panel, 48 h
UO-31 renal = system: UO-31 renal
MDA-MB-231 breast = system: MDA-MB-231 breast
SW-620 colon = system: SW-620 colon
SK-MEL-5 melanoma = system: SK-MEL-5 melanoma
HT29 colon = system: HT29 colon
MALME-3M melanoma = system: MALME-3M melanoma
DMS 273 small cell lung = system: DMS 273 small cell lung
DLD-1 colon = system: DLD-1 colon
SNB-75 CNS = system: SNB-75 CNS
786-0 renal = system: 786-0 renal

Row | Structure (SMILES) | TGI (UO-31 renal) [µM] | GI50 (MDA-MB-231 breast) [µM] | TGI (MDA-MB-231 breast) [µM] | TGI (SW-620 colon) [µM] | TGI (SK-MEL-5 melanoma) [µM] | TGI (HT29 colon) [µM] | TGI (MALME-3M melanoma) [µM] | TGI (DMS 273 small cell lung) [µM] | TGI (DLD-1 colon) [µM] | TGI (SNB-75 CNS) [µM] | TGI (786-0 renal) [µM]
1 | NC1=C(Br)C(=O)c2ncccc2C1=O | 1.07 | 2.01 | 8.8 | 1.84 | 1.46 | 4.3 | 1.4 | 1.44 | 1.98 | 0.664 | 2.99
2 | NNC(=O)CCC(=O)Nc1cc(Cl)c(Cl)cc1Cl | > 100 | – | – | > 100 | > 100 | > 100 | > 100 | > 100 | > 100 | > 100 | > 100
3 | C=C1C(=O)OC2C1CC[C@H](C)C13OC(=O)CC1[C@@]23C (stereo partly drawn) | > 100 | – | – | > 100 | > 100 | > 100 | > 100 | > 100 | > 100 | > 100 | > 100
4 | CCc1ccccc1N1CCN(C(=O)c2cc(OC)c(OC)c(OC)c2)CC1 | 63.4 | – | > 100 | > 100 | 3.79 | 0.617 | 55.9 | > 100 | > 100 | > 100 | > 100
5 | CCOC(=O)C1=C(NNC(=O)Cc2ccccc2)CSC1=Nc1ccccc1 | > 100 | – | – | > 100 | > 100 | > 100 | > 100 | > 100 | > 100 | > 100 | > 100
6 | CCC(CC)n1cc(C(=O)NC(=O)NCCCCCOC(=O)CCCCCCCCCCC(=O)OCCCCCNC(=O)NC(=O)c2cn(C(CC)CC)c(=O)[nH]c2=O)c(=O)[nH]c1=O | > 100 | – | – | > 100 | > 100 | > 100 | > 100 | > 100 | > 100 | 53.5 | > 100
7 | Cc1cccc(NC(=O)c2cc3cc(N=Nc4ccccc4Cl)ccc3oc2=O)c1 | 55.7 | – | – | > 100 | 47.1 | > 100 | > 100 | > 100 | > 100 | > 100 | > 100
8 | COc1cc(Cn2c(=S)ss/c2=N\C(=S)N(C)C)cc(OC)c1OC | > 100 | – | > 47.4 | > 100 | 56.4 | > 100 | > 100 | > 100 | > 100 | 53.9 | > 91.3
9 | Nc1ccn(CCO)c(=O)n1 | > 100 | – | – | > 100 | > 100 | > 100 | > 100 | > 100 | > 100 | > 100 | > 100
10 | CC1CC(c2cccc3c2OCO3)=Nc2ccccc2S1 (stereo not drawn) | > 100 | – | – | > 100 | > 100 | > 100 | > 100 | > 100 | > 100 | > 100 | > 100
11 | O=C1OC(CC(=O)c2ccc(Cl)cc2Cl)C(Cl)=C1Cl (stereo not drawn) | > 56.7 | – | – | 38.1 | > 66.3 | 36 | 39.2 | > 100 | 54.5 | > 61.1 | 52.2
12 | C=C(C)C(=O)OC1CC2=CC(CC3(C)OC3C3OC(=O)C(=C)C13)OC2=O (stereo not drawn) | 26.2 | – | 37.1 | 5.03 | 31 | 17.3 | 13.3 | 28.3 | 5.17 | 28.5 | 20.5
